The source of these data is patent US8487121B2, “Chromane derivatives as TRPV3 modulators” (Glenmark Pharmaceuticals S.A., priority 2007, dated 2013).

SMILES strings stand for the structures. pIC50: −log10 of the molar value.

This assay addresses T1, Human TRPV3 (Homo sapiens, UniProt Q8NET8).
T1 construct: expressed in transfected cells; host or cells: CHO cells (G-418 selected)
T1 sequence (Q8NET8 1-790): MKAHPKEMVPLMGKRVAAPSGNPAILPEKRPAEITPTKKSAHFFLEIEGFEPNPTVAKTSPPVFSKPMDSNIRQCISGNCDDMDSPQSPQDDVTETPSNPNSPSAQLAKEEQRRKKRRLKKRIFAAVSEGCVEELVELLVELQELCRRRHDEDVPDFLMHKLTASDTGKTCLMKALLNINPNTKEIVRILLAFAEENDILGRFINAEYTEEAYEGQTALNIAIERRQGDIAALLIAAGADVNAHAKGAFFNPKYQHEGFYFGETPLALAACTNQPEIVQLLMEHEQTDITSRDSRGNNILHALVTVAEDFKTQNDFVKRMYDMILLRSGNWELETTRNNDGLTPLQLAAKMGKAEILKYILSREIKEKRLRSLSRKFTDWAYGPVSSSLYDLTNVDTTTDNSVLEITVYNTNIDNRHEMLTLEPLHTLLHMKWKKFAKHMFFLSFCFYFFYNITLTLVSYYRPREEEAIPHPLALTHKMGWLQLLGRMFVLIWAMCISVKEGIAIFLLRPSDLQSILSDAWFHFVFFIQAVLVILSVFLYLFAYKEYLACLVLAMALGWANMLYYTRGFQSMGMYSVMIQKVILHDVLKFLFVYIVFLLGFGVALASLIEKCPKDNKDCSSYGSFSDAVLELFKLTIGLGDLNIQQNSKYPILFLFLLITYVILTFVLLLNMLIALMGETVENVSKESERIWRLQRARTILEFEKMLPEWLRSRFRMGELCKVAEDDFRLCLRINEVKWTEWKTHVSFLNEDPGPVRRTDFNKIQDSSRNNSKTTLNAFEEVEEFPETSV
The experiment in a line: 45Calcium uptake assay: inhibition of 2-APB induced cellular uptake of radioactive calcium. It is filed as cell-based. The settings on record: human TRPV3 expressing CHO cells, 2-APB 500 μM; for inhibition at 1 µM: 1.0 μM compound, read-out: Percentage inhibition at 1.0 μM; for inhibition at 10 µM: 10.0 μM compound, read-out: Percentage inhibition at 10.0 μM. The procedure, abridged:
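CHO cells stably expressing human TRPV3 (~50,000/well) were preincubated with compounds for 10 min in medium containing 0.1% BSA, 1.8 mM CaCl2 and 0.5% DMSO. Then 500 μM 2-APB and 5 μCi/ml 45Ca2+ were added for 4 min. Lysate radioactivity was expressed as % of maximal uninhibited response, and IC50 came from nonlinear regression, alongside % inhibition at 1.0 and 10.0 μM.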

One may read the inhibition as the share of the control response that was lost under treatment. One may read the pIC50 as the IC50 on a negative log10 scale, so that one unit is a factor of ten.

With `O=C(CCc1ccccc1-c1ccccn1)NC1CC2(CCC2)Oc2ccc(Cl)cc21` (stereo not shown) [Example 35, N-(6-Chloro-3,4-dihydrospiro[chromene-2,1′-cyclobutan]-4-yl)-3-(2-pyridin-2-ylphenyl) propanamide], the inhibition at 1 µM amounted to 44.8% and the inhibition at 10 µM amounted to 97.6%.

`COc1cc(CCC(=O)N[C@H]2CC3(CCC3)Oc3ccc(Cl)cc32)cc2cc(C)oc12` [Example 80, N-[(4S)-6-chloro-3,4-dihydrospiro[chromene-2,1′-cyclobutan]-4-yl]-3-(7-methoxy-2-methyl-1-benzofuran-5-yl)propanamide]: the inhibition at 1 µM was found to be 73.5%, the inhibition at 10 µM was 98.6% and the pIC50 is 6.00 to 6.30.

For the molecule `O=C(Cc1ccccn1)NC1CC2(CCC2)Oc2ccc(Cl)cc21` (stereo not shown) [Example 8, N-(6-Chloro-3,4-dihydrospiro[chromene-2,1′-cyclobutan]-4-yl)-2-pyridin-2-ylacetamide], the inhibition at 1 µM stood at 3.8% and the inhibition at 10 µM came out at 22.5%.

For the molecule `COc1cc(CCC(=O)N[C@@H]2CC3(CCC3)Oc3ccc(Cl)cc32)cc2cc(C)oc12` [Example 79, N-[(4R)-6-Chloro-3,4-dihydrospiro[chromene-2,1′-cyclobutan]-4-yl]-3-(7-methoxy-2-methyl-1-benzofuran-5-yl)propanamide], the inhibition at 1 µM turned out to be 51.5% and the inhibition at 10 µM was determined as 95.5%.

Turning to `COc1cccc(CCC(=O)NC2CC3(CCC3)Oc3c(Cl)cc(Cl)cc32)c1OCCN(C)C` (stereo not shown) [Example 60, N-(6,8-dichloro-3,4-dihydrospiro[chromene-2,1′-cyclobutan]-4-yl)-3-{[2-(dimethylamino)ethoxy-3-methoxy]phenyl}propanamide], the inhibition at 1 µM was found to be 1.2% and the inhibition at 10 µM was 0%.

As for `COc1ccc2cc([C@H](C)C(=O)N[C@H]3CC4(CCC4)Oc4ccc(Cl)cc43)ccc2c1` [Example 20, (2S)—N-[(4S)-6-Chloro-3,4-dihydrospiro[chromene-2,1′-cyclobutan]-4-yl]-2-(6-methoxy-2-naphthyl)propanamide], the inhibition at 1 µM amounted to 19.3% and the inhibition at 10 µM is 50.9%.

`COc1cccc(CCC(=O)NC2CC3(CCCC3)Oc3ccc(Cl)cc32)c1OC1CCCC1` (stereo not shown) [Example 86, N-(6-Chloro-3,4-dihydrospiro[chromene-2,1′-cyclopentan]-4-yl)-3-(2-cyclopentyloxy-3-methoxy)propanamide]: the inhibition at 1 µM turned out to be 11.6% and the inhibition at 10 µM amounted to 66%.

On to `COc1ccc2cc(CCC(=O)N[C@@H]3CC4(CCC4)Oc4ccc(Cl)cc43)ccc2c1` [Example 74], for which the inhibition at 1 µM worked out at 64.1%, the inhibition at 10 µM came to 90.4% and the negative logarithm of the IC50 (pIC50) is 5.70 to 6.00.

In the case of `COc1cccc(CCCC(=O)NC2CC3(CCC3)Oc3cc(O)ccc32)c1OC1CCCC1` (stereo not shown) [Example 100, N-(7-Hydroxy-3,4-dihydrospiro[chromene-2,1′-cyclobutan]-4-yl)-4-(2-cyclopentyloxy-3-methoxyphenyl)butanamide], the inhibition at 1 µM is 19.4% and the inhibition at 10 µM is 87%.

On to `CCOc1cccc(CCC(=O)NC2CC3(CCC3)Oc3ccc(Cl)cc32)c1OC1CCCC1` (stereo not shown) [Example 44, N-(6-Chloro-3,4-dihydrospiro[chromene-2,1′-cyclobutan]-4-yl)-3-(2-cyclopentyloxy-3-ethoxy)phenylpropanamide], for which the inhibition at 1 µM came to 50.8% and the inhibition at 10 µM was 88.8%.

Regarding `COc1cccc(CCC(=O)N[C@@H]2CC3(CCC3)Oc3ccc(Cl)cc32)c1OC1CCCC1` [Example 42], the inhibition at 1 µM is 47.2%, the inhibition at 10 µM came out at 95.1% and the pIC50 was 6.00 to 6.30.

In the case of `COc1ccc2cc([C@H](C)C(=O)N[C@@H]3CC4(CCC4)Oc4ccc(Cl)cc43)ccc2c1` [Example 19, (2S)—N-[(4R)-6-Chloro-3,4-dihydrospiro[chromene-2,1′-cyclobutan]-4-yl]-2-(6-methoxy-2-naphthyl)propanamide], the inhibition at 1 µM came out at 23.1% and the inhibition at 10 µM came to 61.7%.

Consider `COc1ccc(CCC(=O)N[C@@H]2CC3(CCC3)Oc3ccc(Cl)cc32)c2ccccc12` [Example 69, N-[(4R)-6-Chloro-3,4-dihydrospiro[chromene-2,1′-cyclobutan]-4-yl)-3-(4-methoxy)-1-naphthylpropanamide], for which the inhibition at 1 µM came out at 40.3% and the inhibition at 10 µM amounted to 86.8%.

As to `CC(C)S(=O)(=O)Nc1ccccc1CCC(=O)NC1CC2(CCC2)Oc2ccc(Cl)cc21` (stereo not shown) [Example 34, N-(6-Chloro-3,4-dihydrospiro[chromene-2,1′-cyclobutan]-4-yl)-3-{2-[(isopropylsulfonyl)amino]phenyl}propanamide], the inhibition at 1 µM worked out at 5.69% and the inhibition at 10 µM amounted to 77.1%.

`O=C(CCc1c[nH]c2ccccc12)NC1CC2(CCC2)Oc2ccc(Cl)cc21` (stereo not shown) [Example 77, N-(6-Chloro-3,4-dihydrospiro[chromene-2,1′-cyclobutan]-4-yl)-3-(1H-indol-3-yl)-propanamide]: the inhibition at 1 µM amounted to 39.4% and the inhibition at 10 µM was 81.8%.

As to `O=C(CCc1cccc(OC2CCCC2)c1)N[C@@H]1CC2(CCC2)Oc2ccc(Cl)cc21` [Example 29, N-[(4R)-6-chloro-3,4-dihydrospiro[chromene-2,1′-cyclobutan]-4-yl]-3-(3-cyclopentyloxy)phenyl propanamide], the inhibition at 1 µM was determined as 43.6% and the inhibition at 10 µM is 88.4%.

Turning to `COc1ccc2ccccc2c1CCC(=O)N[C@H]1CC2(CCC2)Oc2ccc(Cl)cc21` [Example 68], the inhibition at 1 µM turned out to be 70.6%, the inhibition at 10 µM came out at 91% and the pIC50 is 6.00 to 6.30.

As to `COc1cccc(CCCC(=O)NC2CC(C)(C)Oc3ccc(Cl)cc32)c1OC1CCCC1` (stereo not shown) [Example 103, N-(6-Chloro-2,2-dimethyl-3,4-dihydro-2H-chromen-4-yl)-4-(2-cyclopentyloxy-3-methoxy)phenylbutanamide], the inhibition at 1 µM was 69.4%, the inhibition at 10 µM was determined as 96.4% and the pIC50 was 6.00 to 6.30.

In the case of `COc1cccc(CCC(=O)N[C@H]2CC3(CCC3)Oc3c(Cl)cccc32)c1OC1CCCC1` [Example 48], the pIC50 is 6.00 to 6.30.

`O=C(CCc1ccc(OC(F)F)c2ccccc12)N[C@@H]1CC2(CCC2)Oc2ccc(Cl)cc21` [Example 71, (4R)-6-Chloro-N-(3,4-dihydrospiro[chromene-2,1′-cyclobutan]-4-yl)-3-(4-difluoro-methoxy-1-naphthyl)propanamide]: the inhibition at 1 µM worked out at 53.5% and the inhibition at 10 µM is 95.5%.

For the molecule `CC(C)Oc1ccc(NS(C)(=O)=O)cc1CCC(=O)NC1CC2(CCC2)Oc2c(Cl)cc(Cl)cc21` (stereo not shown) [Example 62, N-(6,8-Dichloro-3,4-dihydrospiro[chromene-2,1′-cyclobutan]-4-yl)-3-{2-isopropoxy-5-[(methylsulfonyl)amino]phenyl}propanamide], the inhibition at 1 µM amounted to 13.5% and the inhibition at 10 µM was 82.2%.

Regarding `COc1ccc(CCC(=O)NC2CC3(CCC3)Oc3ccc(Cl)cc32)cc1Cl` (stereo not shown) [Example 40, N-(6-Chloro-3,4-dihydrospiro[chromene-2,1′-cyclobutan]-4-yl)-3-(3-chloro-4-methoxy)phenylpropanamide], the inhibition at 1 µM is 6.8% and the inhibition at 10 µM is 93.5%.

For the molecule `COc1cccc(CCC(=O)NC2CC3(CCC3)Oc3ccccc32)c1OC1CCCC1` (stereo not shown) [Example 37, N-(3,4-Dihydrospiro[chromene-2,1′-cyclobutan]-4-yl)-3-(2-cyclopentyloxy-3-methoxy)phenylpropanamide], the inhibition at 1 µM stood at 46.3%, the inhibition at 10 µM was 95.7% and the pIC50 is 6.00 to 6.30.

Take `O=C(Cc1cccc2ccccc12)N[C@@H]1CC2(CCC2)Oc2ccc(Cl)cc21` [Example 12, N-[(4R)-6-Chloro-3,4-dihydrospiro[chromene-2,1′-cyclobutan]-4-yl]-2-(1-naphthyl)acetamide]: the pIC50 was 6.00 to 6.30.

For `COc1cccc(CCC(=O)NC2CC3(CCC3)Oc3cc(Cl)ccc32)c1OC1CCCC1` (stereo not shown) [Example 45, N-(7-Chloro-3,4-dihydrospiro[chromene-2,1′-cyclobutan]-4-yl)-3-(2-cyclopentyloxy-3-methoxy)phenylpropanamide], the inhibition at 1 µM amounted to 59.2%, the inhibition at 10 µM turned out to be 94.8% and the pIC50 is 6.00 to 6.30.
